{"source": "patent US20240197666A1", "about": "“DITERPENOID COMPOUNDS THAT ACT ON PROTEIN KINASE C (PKC)” (K-Gen Therapeutics, Inc., priority 2021, published 2024)", "key": {"[1]": {"test_system": "MC38 tumors", "assay": "MC38 syngeneic model, efficacy and re-challenge", "assay_type": "in vivo, mouse", "conditions": "for Live Animal at Day 50: N 8", "description": "8 weeks old female C57B/J6J mice were implanted subcutaneously at the right flank with 3×10^5 MC38 mouse colon cancer cells. Mice were randomized into different treatment groups (see above) when tumors grew to an average mean tumor size of 50-80 mm^3. Tumor size was measured three times weekly in two dimensions using a caliper, and the volume was expressed in mm^3 using the formula: V=0.5a×b^2 where a and b are the long and short diameters of the tumor, respectively. Mice were monitored daily for clinical signs and body weights were measured twice per week. All groups tolerated drug treatments very well with less than 10% body weight loss. […] Scabs formed near the site of IT injection and the skin recovered with minimal scaring within 3-4 weeks.\nFor the efficacy portion of the study, the major endpoint was the animal survival, defined as time to death or euthanasia when tumors ≥2000 mm^3. The survive rate is the proportion of live animals in each group on a given day. A Kaplan-Meier analysis was performed to compare animal survival between vehicle and treated groups. P<0.05 was considered to be statistically significant. Another endpoint is tumor clearance, for which the mice were monitor for over 50 days after the start of the treatment.\nTo test if anti-tumor immunity was developed in the cured mice, the re-challenge portion of the study was conducted. The major endpoint was the tumor initiation of the re-implanted tumor cells. Tumor fee survive rate is the proportion of tumor fee mice and the mice whose tumor volumes were below 50 mm^3 in each group on a given day. A Mann-Whitney method was performed to analyze the tumor initiation rate at the end of the re-challenge study and P<0.05 was considered to be statistically significant.\nMC38 cells (3×10^5) were re-implanted subcutaneously to the other flank (left flank) of the 8 tumor-eradicated mice (two from group 2, three each from groups 3 and 5). No MC38 tumors formed after 36 days in these 8 tumor-eradicated mice. To study the anti-tumor immunity further in the 8 tumor-eradicated mice, MC38 cells (3×10^5) and unrelated 3LL cells (lung cancer) (2×10^6) were re-implanted and implanted at opposite flanks in these mice. As control, five age-matched naïve mice were implanted with 3LL and MC38 tumor cells at opposite flanks. The re-challenge for control and K1K1-C1348101 groups were performed independently, but with same method and condition."}, "[2]": {"test_system": "4T1-luc2 tumor", "assay": "4T1-luc2 orthotopic breast cancer metastasis model, IT injection", "assay_type": "in vivo, mouse", "from_the_text": "Syngeneic mouse models are frequently used in assessing effect of immune-modulating compounds because both innate and adaptive immune systems are intact in the wild-type mouse strains.\nEach 6-8 weeks old female Balb/c mouse was surgically implanted with 1×10^6 4T1-luc2 tumor cells in the abdominal 4th right mammary fat pad for tumor development. The animals were randomized and treatments were started when the average tumor volume reached 86 mm^3. The group assignment, treatment dose, and schedule were as follows:\nMice were monitored daily for clinical signs and body weights were measured regularly as an indirect measure of toxicity. […] .\nAfter grouping, the bioluminescence measurements were taken once per week to monitor tumor growth in the fat pads and metastasis to other organs. Briefly, the mice were weighted and intra-peritoneal injected with luciferin at 150 mg/kg. 10 minutes after the luciferin administration, the animals were pre-anesthetized with the mixture gas of oxygen and isoflurane. The animals were moved into the imaging chamber for bioluminescence measurements with IVIS (Lumina II) in a complete anesthetic state. […] The bioluminescence signal decreased to the baseline range from the third week in three animals. These three animals were monitored for 87 days and their primary tumors were cured without any metastasis (FIG. 9B-9D). […] However, all tumors in the vehicle group mice kept growing, had steady increase in the bioluminescence signals, and had metastasized before mice died before day 40. A Kaplan-Meier method was used to analyze the animal survival rate between the vehicle group (n=12) and the treated group (n=11, one animal died unexpectedly due to animal attacking). The median survival day is 35.5 for the vehicle group and is 42 for the treated group (P<0.05)."}, "[3]": {"conditions": "re-challenge of 8 tumor-eradicated mice with 3LL cells"}, "[4]": {"conditions": "re-challenge of 8 tumor-eradicated mice with MC38 cells"}}, "data": [{"smiles": "CC1=C[C@H]2[C@@]3(O)[C@H](C)C[C@]4(OC(=O)[C@H](N)CCCCCCc5ccccc5)[C@H]([C@@H]3C=C(CO)C[C@]2(O)C1=O)C4(C)C", "values": [{"measurement": "complete eradication of tumors", "setting": "[1]; group 2 (5 mg/ml), 2 out of 8 tumors", "result": 25, "unit": "%"}, {"measurement": "% Increased Survival Time", "setting": "[1]; group 2: 5 mg/ml, 20 μl it", "result": 45, "unit": "%"}, {"measurement": "Increased Survival Time", "setting": "[1]; group 2: 5 mg/ml, 20 μl it", "result": 9, "unit": "days"}, {"measurement": "Median", "setting": "[1]; group 2: 5 mg/ml, 20 μl it", "result": 29, "unit": "days"}, {"measurement": "Live Animal at Day 50", "setting": "[1]; group 2: 5 mg/ml, 20 μl it, D 0,1,2,7,8,9", "result": 2}, {"measurement": "complete eradication of tumors", "setting": "[1]; group 3 (20 mg/ml), 3 out of 8 tumors", "result": 37.5, "unit": "%"}, {"measurement": "% Increased Survival Time", "setting": "[1]; group 3: 20 mg/ml, 20 μl", "result": 23, "unit": "%"}, {"measurement": "Increased Survival Time", "setting": "[1]; group 3: 20 mg/ml, 20 μl", "result": 4.5, "unit": "days"}, {"measurement": "Median", "setting": "[1]; group 3: 20 mg/ml, 20 μl", "result": 24.5, "unit": "days"}, {"measurement": "Live Animal at Day 50", "setting": "[1]; group 3: 20 mg/ml, 20 μl, D 0,1,2", "result": 3}, {"measurement": "Tumor initiation (mice)", "setting": "[1]; [3]", "result": 8}, {"measurement": "Tumor-free (mice)", "setting": "[1]; [3]", "result": 0}, {"measurement": "Tumor initiation (mice)", "setting": "[1]; [4]", "result": 0}, {"measurement": "Tumor-free (mice)", "setting": "[1]; [4]", "result": 8}, {"measurement": "mean body weight loss", "setting": "[2]; 20 mg/ml, 20 μl (400 μg) IT, Balb/c mice", "result": "less than 10%"}, {"measurement": "median survival day", "setting": "[2]; 20 mg/ml, 20 μl (400 μg) IT, n=11", "result": 42, "unit": "days"}, {"measurement": "animals with primary tumors cured without any metastasis", "setting": "[2]; monitored for 87 days, single IT treatment", "result": "three"}]}]}
